Data published in patent US20240139188A1, “Arylamide Compounds For Treatment And Prevention Of Fungal Infections” (priority 2022, published 2024).
Converted amounts (≈) assume the structure as drawn. “And” between values parts separate entries of the source, which are not always exact repeats. Identical values can stand only once. Like-named read-outs stand apart in the source and are kept apart here.

Columns and labels:
A. fumigatus [1] = assay: MIC/MEC, CLSI M38-A2; assay type: cell-based, Aspergillus fumigatus
C. albicans = assay: MIC for yeasts, CLSI M27-A3; assay type: cell-based, Candida albicans
C. auris = assay: MIC for yeasts, CLSI M27-A3; assay type: cell-based, Candida auris
[2] = tested on: A. fumigatus null mutants; assay: Phosphatase and kinase null mutant screening; assay type: cell-based, Aspergillus fumigatus; note: key: +: sensitivity similar to wild-type; −: more sensitive than the wild-type
Method: Phosphatase and kinase null mutant screening: An A. fumigatus phosphatase deletion library encompassing 25 null mutants for phosphatase catalytic subunits (Winkelströter et al., G3 (Bethesda), 2015, 5, 1525-39) was screened for sensitivity to the combination of CAS+BRI. […] In each well a total of 200 μL of liquid MM plus conidia from the different mutants (1×10^4 conidia/mL) was incubated in the presence of BRI (20 μM).

[3] = tested on: A. fumigatus cell membrane potential; assay: Membrane potential determination, DiBAC4(3); assay type: cell-based, Aspergillus fumigatus; details: CAS 0.125 μg/ml, 30 minutes
Method: Membrane potential determination: […] Biotechnol., 2021, 14, 262-276) with modifications. […] After, the germlings were washed with sterile PBS (140 mM NaCl, 2 mM KCl, 10 mM NaHPO4, 1.8 mM KH2PO4, pH 7.4). The fluorescence was analyzed with excitation wavelength of 450-490 nm, and emission wavelength of 525-550 nm on the Observer Z1 fluorescence microscope (Carl Zeiss) using the 100× with Differential interference contrast (DIC) images. Fluorescent images were captured with an AxioCam camera (Carl Zeiss, Inc.) and processed using the Axio Vision software (version 4.8).

A. fumigatus [4] = assay: Fungal burden, chemotherapeutic murine model of IPA; assay type: in vivo, BALB/c mice; details: CAS 1 mg/kg, 3 days post-infection, vs non-treated mice
Method: Fungal burden: Inbred female mice (BALB/c strain; body weight, 20-22 g) were housed in vented cages containing five animals. Mice were immunosuppressed with cyclophosphamide (150 mg per kg of body weight), which was administered intraperitoneally on days −4, −1 and 2 prior to and post infection (infection day is “day 0”). Hydrocortisonacetate (200 mg/kg body weight) was injected subcutaneously on day −3. Mice (5 mice per group) were anesthetized by halothane inhalation and infected by intranasal instillation of 20 μL of 1.0×10^6 conidia of A. fumigatus Δku80 pyrG^+ (wild-type) (the viability of the administered inoculum was determined by incubating a serial dilution of the conidia on MM medium, at 37° C.). As a negative control, a group of 5 mice received PBS only. […]
DNA quantity and quality were assessed using a NanoDrop 2000 spectrophotometer (Thermo Scientific). Quantitative real-time PCRs were performed using 400 ng of total DNA from each sample, and primers to amplify the 18S rRNA region of A. fumigatus and an intronic region of mouse GAPDH (glyceraldehyde-3-phosphate dehydrogenase). Six-point standard curves were calculated using serial dilutions of gDNA from A. fumigatus strain and the uninfected mouse lung. Fungal and mouse DNA quantities were obtained from the threshold cycle (Ct) values from an appropriate standard curve.

A. fumigatus biofilms = assay: Biofilm assay (XTT); details: Aspergillus fumigatus, read-out: inhibition of biofilm formation
Method: Biofilm assay: To test the susceptibility of pre-formed A. fumigatus biofilms to
VOR, CAS and to the combination of CAS+BRI and VOR+BRI, a suspension containing 10^6 conidia per mL of the wild-type strain (Δku80 pyrG^+) was prepared in liquid MM and 100 μL of it was inoculated in each well of a 96-well plate. After 24 hours of incubation at 37° C., 50 μL of fresh MM containing CAS, VOR or the combination of VOR and CAS with BRI was added to the biofilm to reach the final concentration as indicated and incubated for a further 12 hours at 37° C. Wells containing untreated conidia were used as a positive control. After, the metabolic activity of the cells was evaluated by adding 50 μL of an aqueous XTT solution (1 mg/mL of XTT and 125 μM of menadione) to each well. The plate was incubated for additional 1 hour at 37° C., centrifuged (2000 rpm, 5 minutes) and 100 μL of the supernatant was transferred to a flat-bottomed 96-well plate. The absorbance was measured at 450 nm on a plate reader (Synergy HTX Multi-Mode Reader- BioTek Instruments). The XTT assay's were performed in six replicates.
CrzA:GFP = CrzA:GFP translocation to the nucleus; details: CAS 0.07 μg/ml, 30 minutes
Method: Conidia were germinated in YG medium and grown for 13 hours and then exposed or not to BRI, CAS, and BRI+CAS for 30 minutes.

chitin synthase genes = assay: Chitin synthase mRNA accumulation (RT-qPCR); details: wild-type strain, 1 hour exposure; not in the mutant strains
Method: RNA-sequencing. cDNA synthesis and RTqPCR: All experiments were carried out in biological triplicates and conidia (10^7) were inoculated in liquid MM and A. fumigatus strains were grown for 16 hours at 37 ° C. and treated or not with different concentrations of BRI, CAS, or BRI+CAS for 1 hour. For total RNA isolation, mycelia were ground in liquid nitrogen and total RNA was extracted using TRIzol (Invitrogen), treated with RQ1 RNase-free DNase I (Promega), and purified using the RNAeasy kit (Qiagen) according to the manufacturer's instructions. RNA was quantified using a NanoDrop and Qubit fluorometer, and analyzed using an Agilent 2100 Bioanalyzer system to assess the integrity of the RNA.
For RT-qPCR, the RNA was reverse transcribed to cDNA using the ImProm-II reverse transcription system (Promega) according to manufacturer's instructions, and the synthesized cDNA was used for real-time analysis using the SYBR green PCR master mix kit (Applied Biosystems) in the ABI 7500 Fast real-time PCR system (Applied Biosystems, Foster City, CA, USA).

C. neoformans = assay: BRI+CAS against yeasts, colony forming units; details: CAS 16 μg/ml alone, 48 hours
Method: Combination of Brilacidin and caspofungin against yeasts: For measuring the effect of the combination BRI+CAS against yeast fungal pathogens, two methods were used: (i) metabolic activity by XTT-assay and (ii) colony forming units (CFUs). For the first method, C. neoformans, C. albicans, and C. auris 10^4 cells were inoculated in RPMI-1640 supplemented with CAS 0 to 32 μg/ml (for C. neoformans) and 0 to 1 μg/ml (for Candida spp.) or the same concentrations of CAS combined with BRI 0.625 μM (for C. neoformans), BRI 20 μM (for C. albicans), and BRI 10 μM (for C. auris). […] XTT-assays were also used for C. albicans caspofungin resistant strains but with CAS 0.5 μg/ml combined with BRI 5, 10 or 20 μM. The same experimental design was used for the CFUs determination, except that after 48 hours the cells present in the wells were plated on YPD (yeast extract 10g, peptone 20g, dextrose 20g, agar 20 g, water 1000 mL) and the plates were incubated at 30° C. for 24-48 hours for determining the survival percentage.

[5] = tested on: A. fumigatus clinical isolates; assay: Growth inhibition of clinical isolates by CAS, VOR, BRI and combinations

CC[C@H](C)C[C@H](C)CCCCCCCCC(=O)N[C@H]1C[C@@H](O)[C@@H](NCCN)NC(=O)[C@@H]2[C@@H](O)CCN2C(=O)[C@H]([C@H](O)CCN)NC(=O)[C@H]([C@H](O)[C@@H](O)c2ccc(O)cc2)NC(=O)[C@@H]2C[C@@H](O)CN2C(=O)[C@H]([C@@H](C)O)NC1=O [CAS, caspofungin]
MEC of CAS (A. fumigatus [1]; A. fumigatus): 0.2 µg/mL and 0.25 µg/mL
MEC CAS (A. fumigatus [1]; A. fumigatus CM7555 CAS^R): 16 µg/mL
MEC CAS (A. fumigatus [1]; A. fumigatus DPL1033 CAS^R): 16 µg/mL
MEC CAS (A. fumigatus [1]; A. fumigatus MD24053 CAS^R): 16 µg/mL
MEC CAS (A. fumigatus [1]; A. fumigatus WT): 0.25 µg/mL
MEC CAS (A. fumigatus [1]; A. fumigatus clinical isolates susceptible to CAS): 0.25 µg/mL
MEC CAS (A. fumigatus [1]; CAS-resistant clinical strains DPL1033, MD24053, CM7555): 16 µg/mL
MIC (C. albicans; Candida albicans SC5314, read-out: MIC CAS): 0.25 µg/mL (≈ 0.229 µM)
MIC (C. albicans; Candida albicans, read-out: MIC CAS, Candida albicans DPL1006 CAS^R (FKS1 F641L)): 2 µg/mL (≈ 1.83 µM)
MIC (C. albicans; Candida albicans, read-out: MIC CAS, Candida albicans DPL1007 CAS^R (FKS1 F641S)): 4 µg/mL (≈ 3.66 µM)
MIC (C. albicans; Candida albicans, read-out: MIC CAS, Candida albicans DPL1009 CAS^R (FKS1 S645Y)): 4 µg/mL (≈ 3.66 µM)
MIC (C. albicans; Candida albicans, read-out: MIC CAS, Candida albicans DPL1010 CAS^R (FKS1 S645F)): 2 µg/mL (≈ 1.83 µM)
MIC (C. albicans; Candida albicans, read-out: MIC CAS, Candida albicans DPL1011 CAS^R (FKS1 S645F + R1361R/H)): 4 µg/mL
MIC CAS (C. auris; Candida auris 468/2015): 1.0 µg/mL (≈ 0.915 µM)
MIC CAS (C. auris; Candida auris 469/2015): 1.0 µg/mL (≈ 0.915 µM)
MIC CAS (C. auris; Candida auris 470/2015): 1.0 µg/mL (≈ 0.915 µM)
MIC CAS (C. auris; Candida auris 471/2015): 1.0 µg/mL (≈ 0.915 µM)
MIC (C. auris; Candidozyma auris, Candida auris 467/2015, read-out: MIC CAS): 1 µg/mL (≈ 0.915 µM)
sensitivity, CAS (0.25 μg/mL) ([2]; Afs35 (wild-type; A1159)): +
sensitivity, CAS (0.25 μg/mL) ([2]; CEA17 (wild-type; A1160)): +
sensitivity, CAS (0.25 μg/mL) ([2]; ΔcalA (Afu5g09360)): +
sensitivity, CAS (0.25 μg/mL) ([2]; ΔcdcA (Afu3g12250)): +
sensitivity, CAS (0.25 μg/mL) ([2]; ΔdspA (Afu1g13040)): +
sensitivity, CAS (0.25 μg/mL) ([2]; ΔdspB (Afu1g03540)): +
sensitivity, CAS (0.25 μg/mL) ([2]; ΔdspD (Afu2g02760)): +
sensitivity, CAS (0.25 μg/mL) ([2]; ΔltpA (Afu2g01880)): +
sensitivity, CAS (0.25 μg/mL) ([2]; ΔmpkA): −
sensitivity, CAS (0.25 μg/mL) ([2]; ΔmpkB): +
sensitivity, CAS (0.25 μg/mL) ([2]; ΔmpkC): +
sensitivity, CAS (0.25 μg/mL) ([2]; ΔnemA (Afu1g09460)): +
sensitivity, CAS (0.25 μg/mL) ([2]; ΔpphA (Afu5g12010)): +
sensitivity, CAS (0.25 μg/mL) ([2]; ΔppmA (Afu8g04580)): +
sensitivity, CAS (0.25 μg/mL) ([2]; ΔppsA (Afu5g11690)): +
sensitivity, CAS (0.25 μg/mL) ([2]; ΔpptA (Afu5g06700)): +
sensitivity, CAS (0.25 μg/mL) ([2]; ΔppzA (Afu2g03950)): +
sensitivity, CAS (0.25 μg/mL) ([2]; ΔpsrA (Afu1g04790)): +
sensitivity, CAS (0.25 μg/mL) ([2]; ΔptcA (Afu1g15800)): +
sensitivity, CAS (0.25 μg/mL) ([2]; ΔptcB (Afu1g09280)): +
sensitivity, CAS (0.25 μg/mL) ([2]; ΔptcD (Afu5g13740)): +
sensitivity, CAS (0.25 μg/mL) ([2]; ΔptcE (Afu2g03890)): +
sensitivity, CAS (0.25 μg/mL) ([2]; ΔptcF (Afu1g06860)): +
sensitivity, CAS (0.25 μg/mL) ([2]; ΔptcG (Afu5g13340)): +
sensitivity, CAS (0.25 μg/mL) ([2]; ΔptcH (Afu4g00720)): +
sensitivity, CAS (0.25 μg/mL) ([2]; ΔptpB (Afu3g10970)): +
sensitivity, CAS (0.25 μg/mL) ([2]; ΔptyA (Afu6g06650)): +
sensitivity, CAS (0.25 μg/mL) ([2]; ΔpypA (Afu4g04710)): +
sensitivity, CAS (0.25 μg/mL) ([2]; ΔsakA): +
sensitivity, CAS (0.25 μg/mL) ([2]; ΔsakA, ΔmpkC): +
sensitivity, CAS (0.25 μg/mL) ([2]; ΔsitA (Afu6g11470)): +
sensitivity, CAS (0.25 μg/mL) ([2]; ΔyphA (Afu4g07000)): +
fluorescent germlings (membrane depolarization) [3]: ~25%
reduction of fungal burden in the lungs (A. fumigatus [4]): approximately 50%
inhibition at 0.25 µg/mL (A. fumigatus biofilms): ~10%
inhibition at 2 µg/mL (A. fumigatus biofilms): ~10%
germlings with CrzA:GFP in the nuclei (CrzA:GFP): 28.3%
chitin synthase gene expression (chitin synthase genes): induce some of these genes
decrease of survival (CFUs) (C. neoformans): about 50%
growth, CAS alone ([5]; CM7555 CAS^R, CAS 0.25 μg/mL): +
growth, CAS alone ([5]; CM7555 CAS^R, CAS 2 μg/mL): +
growth, CAS alone ([5]; CM7555 CAS^R, CAS 4 μg/mL): +
growth, CAS alone ([5]; DPL1033 CAS^R, CAS 0.25 μg/mL): +
growth, CAS alone ([5]; DPL1033 CAS^R, CAS 2 μg/mL): +
growth, CAS alone ([5]; DPL1033 CAS^R, CAS 4 μg/mL): +
growth, CAS alone ([5]; MD24053 CAS^R, CAS 0.25 μg/mL): +
growth, CAS alone ([5]; MD24053 CAS^R, CAS 2 μg/mL): +
growth, CAS alone ([5]; MD24053 CAS^R, CAS 4 μg/mL): +
growth, CAS alone ([5]; WT, CAS 0.25 μg/mL): +
growth, CAS alone ([5]; WT, CAS 2 μg/mL): +
growth, CAS alone ([5]; WT, CAS 4 μg/mL): +
